Assay results from patent US20030086911A1, “Methods and compositions for the stimulation of human immunodeficiency virus-specific cytotoxic T lymphocytes employing autologous antigen-peripheral blood mononuclear cells” (Department of Health and Human Services, priority 1993, published 2003).

Assays:
[1] = test system: BALB/c 3T3 neo-only transfectants (18neo); assay: 51Cr-release CTL assay with T1272-specific effectors on peptide-sensitized fibroblast targets; assay type: cell-based, BALB/c mice; conditions: for % specific 51Cr release, Immune spleen cells: 0.1 μM peptide on 18neo targets, effectors spleen cells of 10 μM T1272 peptide-pulsed spleen cell-immunized BALB/c mice restimulated with 0.1 μM T1272; for % specific 51Cr release, Immune spleen cells / % specific 51Cr release, CTL line: E/T 40:1; for % specific 51Cr release, CTL line: 1.0 μM peptide on 18neo targets, short-term T1272-specific BALB/c CTL line (3 weeks in culture); for peptide concentration able to sensitize targets for lysis: titrated in the killing assay, T1272 peptide-immune splenic CTL at 40:1 (FIG. 1C)
Description: CTL generation: BALB/c (H-2^d) mice were immunized intravenously with 20×10^6 spleen cells pulsed with various concentrations of T1272 peptide for two hours at 37° C. and irradiated at 2,000 rad (by the method of H. Takahashi, Y. Nakagawa, K. Yokomuro, & J. A. Berzofsky, submitted). One week later, immune spleen cells (3×10^6/ml) were restimulated for six days in vitro with various concentrations of T1272 peptide in 10% Rat-T Stim, without Con A (Collaboration Research Incorporated, Bedford, Mass.) in 24-well culture plates in complete T-cell medium (CTM)(14), a 1:1 mixture of RPMI 1640 and Eagle-Hanks amino acid medium containing 10% fetal bovine serum, 2 mM L-glutamine, penicillin (100 U/ ml), streptomycin (100 μg/ml), and 5×10^−5 M 2 mercaptoethanol.
CTL Assay. Cytolytic activity of the restimulated cells was measured as described (15) by using a six-hour assay with various ^51Cr-labeled targets. For testing the peptide specificity of CTL, effectors and ^51CR-labeled targets were mixed with various concentrations of peptide at the beginning of the assay. The percentage specific ^51CR release was calculated as 100(experimental release−spontaneous release)/(maximum release−spontaneous release). Maximum release was determined from supernatants of cells that were lysed by addition of 5% Triton X-100. Spontaneous release was determined from target cells incubated without added effector cells.
To more precisely identify the T-cell epitope recognized by T1272-specific BALB/c CTL, and to test the hypothesis that the response was specific for the neo-antigenic determinant created by the mutation, a series of peptides was synthesized and various concentrations of these peptides were individually added to effectors and ^51Cr-labeled fibroblast targets at the start of the assay culture. We measured the cytotoxic activity of two types of effector cells: spleen cells from mice immunized with peptide-pulsed cells stimulated once in vitro with 0.1 μM T1272 peptide (presumably polyclonal·effector populations), and a short-term CTL line (possibly an oligoclonal population, although only three weeks in culture).
CTL effectos were spleen cells derived from die 10 μM T1272 peptide-pulsed spleen cell-immunized BALB/c mice (restimulated 6 days with 0.1 μM T1272 peptide) (left) or a short-term T1272-specific BALB/c CTL line (after 3 weeks in culture) (right). BALB/c 3T3 neo-only transfectants (18neo) (H-2^d) plus 0.1 μM synthetic peptide were used as targets with BALB/c spleen effectors or with 1.0 μM peptide for the CTL line. […] The effector/target cell ratio was 40:1. The arrow and bold-face amino acids indicate the site of the 135 Cys to Tyr mutation. Underlined amino acids correspond to human p53 residues which differ from the mouse p53.

[2] = test system: HIV-1-IIIB gp160-gene transfected BALB/c.3T3 fibroblasts; assay: CTL induced by i.v. immunization with peptide-pulsed irradiated cells, 51Cr release on gp160 transfectants; assay type: in vivo, BALB/c mice; conditions: cells pulsed with the 10-mer before immunization; without adding IL-2 exogenously (FIG. 9)
Description: CTL Generation. Immunizations were carried out either subcutaneously (s.c.) in the base of the tail, or intraperitoneally (i.p.), or intravenously (i.v.) from the tail vein with 27 G needle. Several weeks later, immune spleen cells (5×10^6/ml in 24-well culture plates in complete T-cell medium (a 1:1 mixture of RPMI 1640 and EHAA medium containing 10% FCS, 2 mM L-glutamine, 100 U/ml penicillin, 100 μg/ml streptomycin and 5×10^−5M 2-mercaptoethanol)) were restimulated for 6 days in vitro with mitomycin-C treated HIV-1-IIIB envelope gp160 gene transfected histocompatible BALB/c.3T3 fibroblasts alone or in the presence of 10% Rat Con-A supernatant-containing medium (Rat T-cell Monoclone) (Collaborative Research, Inc., Bedford, Mass.) or 10 U/ml of recombinant mouse IL-2 (rIL-2) (Genzyme, Boston, Mass.).
CTL assay. After culture for 6 days, cytolytic activity of the restimulated cells was measured as previously described (21) using a 6 hr assay with various ^51Cr-labelled targets, as indicated in the figure legends. […] The percent specific ^51Cr release was calculated as 100 (experimental release−spontaneous release)/(maximum release−spontaneous release). Maximum release was determined from supernatants of cells that were lysed by addition of 5% Triton-X 100. Spontaneous release was determined from target cells incubated without added effector cells. […]

[3] = test system: L-cell (H-2^k) transfectants expressing D^d, L^d and K^d; assay: MHC-restriction mapping of T1272 peptide recognition by CTL; assay type: cell-based, mouse; conditions: 0.1 μM peptide T1272, K^d L-cell transfectants (FIG. 2B)
Description: MHC-restriction mapping. L-cell (H-2^k) transfectants expressing D^d (T4.8.3 (18), L^d (T1.1.1 (19) and K^d (B4III-2(20)) were used as targets, in the presence or absence of 0.1 μM peptide T1272. neo gene transfected BALB/c 3T3 fibroblasts (18neo) (H-2^d) (21) were used as a positive control, and neo gene-transfected L-cells L28 (H-2^k) (21) were used as a negative target control, also in the presence or absence of peptide.
The BALB/c 3T3 (18neo) fibroblasts (H-2^d) used as targets in these experiments express class I but not class II MHC gene products.
In this experiment, 2×10^3 51Cr-labeled targets were cultured with T1272-immune splenic effector cells (a short-term line stimulated twice with 0.1 μM peptide) at several effector/target cell ratios in the presence or absence of 0.1 μM peptide T1272. L-cell (H-2^k) transfectants expressing D^d (T4.8.3 (18)), L^d (T1.1.1 (19)) and K^d (B4III-2 (20)) were used as targets. neo gene transfected BALB/c 3T3 fibroblasts (isneo) (H-2^d) (21) were used as a positive control, and neo gene-transfected L-cells L28 (H-2^k) (21) were used as a negative target control. Spontaneous release was less than 20% of maximal release. Although background without peptide varied among the different transfectants from experiment to experiment, T1272 peptide-specific lysis was consistently seen only in the cells expressing K^d, in five different experiments. […]

Sequence | % specific 51Cr release, Immune spleen cells [1] | % specific 51Cr release, CTL line [1] | priming of CD8+ CTL by minimal peptide [2] | peptide concentration able to sensitize targets for lysis [1] | class I MHC restriction of peptide recognition by CTL [3]
ALNKMFYQLAKT [Peptide T12] | 9.7% | −9.1% | – | – | –
FYQLAKTCPV [Peptide V10] | 62.7% | 53.7% | – | – | –
KMFYQLAKTCPVQL [Peptide L14, C-terminal 14 residues of the T1272 peptide] | 22.2% | 22.1% | – | – | –
RGPGRAFVTI [Peptide 18IIIB-I-10] | – | – | can prime CD8^+ CTL almost as well as 18IIIB | – | –
RIQRGPGRAFVTIGK [Peptide P18IIIB] | – | – | – | not recognized at any concentration | –
TYSPALNKMFYQL [Peptide L13] | 14.7% | −8.9% | – | – | –
TYSPALNKMFYQLAKTCPVQL [Peptide T1272] | 35.4% | 24.7% | – | < 0.1 µM | restricted by the class I molecule K^d
